In this experiment the target is Histamine H1 receptor (Cavia porcellus, UniProt P31389).
Histamine H1 receptor, sequence (P31389 whole entry): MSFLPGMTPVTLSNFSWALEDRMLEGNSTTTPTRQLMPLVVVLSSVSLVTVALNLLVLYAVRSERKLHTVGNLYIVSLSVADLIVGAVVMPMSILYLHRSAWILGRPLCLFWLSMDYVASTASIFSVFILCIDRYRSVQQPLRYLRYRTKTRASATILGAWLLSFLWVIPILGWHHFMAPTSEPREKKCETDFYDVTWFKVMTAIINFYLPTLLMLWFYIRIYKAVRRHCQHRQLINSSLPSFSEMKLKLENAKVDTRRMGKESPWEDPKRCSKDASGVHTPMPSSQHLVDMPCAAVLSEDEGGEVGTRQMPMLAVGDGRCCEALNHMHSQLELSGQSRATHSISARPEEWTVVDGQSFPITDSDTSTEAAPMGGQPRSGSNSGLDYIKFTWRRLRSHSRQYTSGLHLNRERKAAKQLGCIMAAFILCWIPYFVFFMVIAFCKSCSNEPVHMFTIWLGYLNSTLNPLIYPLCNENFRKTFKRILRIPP

For orientation: Ki means a measure of affinity in units of concentration, obtained from inhibition or displacement. A lower Ki goes with higher affinity. Compound `Cc1ccc(C(=CCN2CCCC2)c2ccccn2)cc1` [CAS_486-12-4] came in with a Ki of 0.93 nM.

Source of the values: BindingDB's records for doi:10.1124/jpet.104.070086 (University of North Carolina At Chapel Hill, 2004).
